Reference: US20230035127A1, “CULTURE AND DIFFERENTIATION OF PLURIPOTENT STEM CELLS” (University of Maryland, College Park, priority 2021, published 2023)
Where “and” joins values, the source holds several entries; their conditions need not be identical. Equal entries are not always repeated. Entries after “also recorded” stand apart in the source; their conditions may differ.

Legend:
human eiPSCs = test: 3D cardiac differentiation of eiPSC spheroids: percentage of beating cardiac spheroids and outset beating time; type: cell-based; conditions: for beating efficiency of 3D cardiac differentiation: PSCs
Procedure: Cardiac differentiation of the 3D eiPSC spheroids was conducted by modulating the canonical Wnt signaling pathway with agonists and antagonists sequentially, which has also been used for differentiation of human PSCs into cardiomyocytes under 2D culture. Two Wnt agonists, CHIR99021 (8 μM) and 6-bromoindirubin-3′-oxime (BIO, 2 μM), were supplemented into the culture medium on day 0, to up-regulate the Wnt signaling and induce iPSC differentiation into mesoderm for 1 day. On day 1, two Wnt antagonists, XAV939 (10 μM) and KY02111 (10 μM), were used to suppress the Wnt signaling for inducing cardiac commitment of the mesoderm cells in the following 6 days to obtain cardiac spheroids. Afterward, the cardiac spheroids were cultured in pure cardiac maintenance medium for maturation until day 13.5. […] In other words, the outset beating time (OBT) of the cardiac spheroids was synchronized to be within ˜24 h for the 1 μM RI group. No significant change in the beating percentage from day 7.5 to day 13.5 was observed. In contrast, in the 10 μM RI group, only ˜8% and ˜44% of cardiac spheroids beat on days 6.5 and 13.5, respectively (FIG. 4A, on day 13.5). […] Therefore, the OBT ranges over at least a week, indicating high heterogeneity of the cardiac spheroids in the 10 μM RI group as the beating is a direct and visible indicator of functional maturity of the cardiac spheroids.
(§1) To obtain 3D iPSC spheroids, the iPSC colonies under 2D culture at ˜80% confluence were treated with Versene for 2 min, rinsed with PBS, and further detached from the substrate by gentle pipetting. The detached iPSCs were re-suspended in mTeSR1 with Rock inhibitor (Y27632) at 0, 1, 5, or 10 μM. Afterward, the medium was supplemented with 0.35% (v/v) methylcellulose. The cell suspension (12 ml) containing ˜4×10^6 cells was pushed through a cell strainer with 100 μm mesh size. Later, the suspension of iPSC clumps was transferred into a petri dish (diameter: 10 cm) for culture in a humidified incubator at 37° C. and 5% CO2 for 2 days, during which the 2D iPSC clumps grew into 3D iPSC spheroids. Then, the medium was changed to mTeSR1 (supplemented with 0.35% methylcellulose) with no rock inhibitor, to further culture for 2 days before cardiac differentiation. To determine the number of cells per eiPSC spheroid, roughly equal numbers of the spheroids from either the 1 or 10 μM RI group were pooled together and trypsinized to dissociate the cells. The dissociated cells were then resuspended in 1.4 ml of the aforementioned iPSC maintenance medium and the cell number was counted using a hemocytometer. Three independent runs with 282, 260, and 256 spheroids for the 1 μM RI group and 273, 298, and 286 spheroids for the 10 μM RI group were conducted.
The eiPSC spheroids obtained after 4 days of culture on day 0 were induced into mesoderm by up-regulation of the Wnt signaling pathway using 8 μM CHIR99021 and 2 μM GSK inhibitor 6-bromoindirubin-3′-oxime (BIO) in the mesoderm induction medium for 1 day. The mesoderm induction medium was a mixture of DMEM/F12 and α-MEM (v/v, 1:1), containing 2% Knockout Serum Replacement (KOSR), 1 mM L-glutamine, 1% MEM non-essential amino acids (NEAA), and 0.1 mM β-mercaptoethanol. After 1 day, the spheroids were induced for cardiac commitment by down-regulating the Wnt signaling pathway using 10 μM KY02111 and 10 μM XAV939 in the cardiac maintenance medium for 6 days with the medium being changed every other day. The cardiac maintenance medium was a mixture of RPMI1640 and α-MEM (v/v, 1:1) containing 5% fetal bovine serum (FBS). Starting from day 8, the cardiac maintenance medium without KY02111 and XAV939 was used, and it was changed every other day for cardiac maturation. Images and videos of the resultant cardiac spheroids were taken using the Zeiss LSM 710 microscope before medium change.

IMR90-1 human iPSCs = test: 3D cardiac differentiation of IMR90-1 iPSCs: beating cardiac spheroids; type: cell-based; conditions: for percentage of beating IMR90-1 cardiac spheroids: 10 μM RI
Procedure: Another commonly utilized iPSC line (IMR90-1) was tested to confirm that the improved cardiac differentiation of iPSCs with low RI for 3D culture before differentiation is not because of the eiPSCs used. The beating of the resultant IMR90-1 cardiac spheroids peaked at ˜98% on day 7.5 with the OBT being synchronized within ˜1 day for the 1 μM RI group (FIG. 19A). […] This was consistent with the flow cytometry data of the cells in the cardiac spheroids collected on day 12.5, showing that 91% and 32% of the cells were positive for the cardiac-specific protein cTnT (that are crucial for beating) in the 1 and 10 μM RI groups, respectively (FIG. 19B-C). Furthermore, cells in the cardiac spheroids that were positive for neural-specific maker MUSASHI were negligible in the 1 μM RI group, while ˜20% cells in the cardiac spheroids from the 10 μM RI group were MUSASHI positive (FIG. 19B-C).
as §1
The eiPSC spheroids obtained after 4 days of culture on day 0 were induced into mesoderm by up-regulation of the Wnt signaling pathway using 8 μM CHIR99021 and 2 μM GSK inhibitor 6-bromoindirubin-3′-oxime (BIO) in the mesoderm induction medium for 1 day. The mesoderm induction medium was a mixture of DMEM/F12 and α-MEM (v/v, 1:1), containing 2% Knockout Serum Replacement (KOSR), 1 mM L-glutamine, 1% MEM non-essential amino acids (NEAA), and 0.1 mM β-mercaptoethanol. […]

eiPSCs = test: Survival/yield of PSCs in 3D suspension culture; type: cell-based, human; conditions: for improvement of cell yield (number of viable cells): 3D culture
Procedure: as §1

Question: Which results are given for C[C@@H](N)[C@H]1CC[C@H](C(=O)Nc2ccncc2)CC1.Cl.Cl (relative stereo) [RI, (+)-(R)-trans-4-(1-aminoethyl)-N-(4-pyridyl) cyclo-hexanecarboxamide dihydrochloride]?
Answer: beating efficiency of 3D cardiac differentiation (human eiPSCs; 1 μM RI, in about 7 days): more than 95%; percentage of beating cardiac spheroids (human eiPSCs; 1 μM RI, day 6.5): ~48%; percentage of beating cardiac spheroids (human eiPSCs; 5 μM RI, day 9.5): ~61%; beating efficiency of 3D cardiac differentiation (human eiPSCs; 10 μM RI, in 14 days): less than 50%; outset beating time (OBT) (human eiPSCs; 10 μM RI, day 6-6.5 to day 13.5): more than 7 days; percentage of beating cardiac spheroids (human eiPSCs; 10 μM RI, day 6.5): ~8%; percentage of beating cardiac spheroids (human eiPSCs; 10 μM RI, day 13.5, dihydrochloride): ~44% and 44.3%; outset beating time (OBT) synchronized within (IMR90-1 human iPSCs; 1 μM RI): ≤ 1 days; time within which cardiac spheroids start to beat (IMR90-1 human iPSCs; 1 μM RI): ≤ 24 h; percentage of beating IMR90-1 cardiac spheroids (IMR90-1 human iPSCs; day 7.5): 11.5%; percentage of beating IMR90-1 cardiac spheroids (IMR90-1 human iPSCs; in a week, day 13.5): 34.1%; cell survival and yield (eiPSCs; 1 μM RI compared to 0 μM RI control, day 0, dihydrochloride): significantly more; also recorded: significantly increases; improvement of cell yield (number of viable cells) (eiPSCs; 10 μM RI compared to 0 μM RI): about 3 times; improvement of cell yield (number of viable cells) (eiPSCs; 10 μM RI compared to 1 μM RI): ~2 times
